Test results taken from patent US20240376101A1, “SUBSTITUTED 1,4-DIHYDRO-1,6-NAPHTHYRIDINE AMIDE AND USE THEREOF” (Tuojie Biotech (Shanghai) Co., Ltd., priority 2021, published 2024).
Blank lines part the entries; values can stand above or below the compound they belong to.

How the values were obtained:
[1] = molecular target: T1, mineralocorticoid receptors (Homo sapiens, UniProt P08235); test: Assay for in-vitro antagonistic activity against mineralocorticoid receptors (Gal4-MR LBD luciferase reporter in HEK293T cells, 1 nM aldosterone); format: cell-based
T1 construct: expressed in transfected cells; host or cells: HEK293T
T1 sequence (P08235 726-964 limits assumed): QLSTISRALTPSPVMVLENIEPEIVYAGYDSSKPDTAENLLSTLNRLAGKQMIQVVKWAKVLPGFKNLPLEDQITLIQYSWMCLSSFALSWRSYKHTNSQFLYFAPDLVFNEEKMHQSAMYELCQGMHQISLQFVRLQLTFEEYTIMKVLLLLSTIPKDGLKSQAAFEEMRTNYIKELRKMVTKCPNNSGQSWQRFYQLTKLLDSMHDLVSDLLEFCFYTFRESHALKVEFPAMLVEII
From the text: In in-vitro activity assays of compounds in the disclosure, the characteristic of luciferase binding to the substrate to cause a chemiluminescence reaction can be utilized to transfect human embryonic kidney cells (HEK293T) with a plasmid comprising the mineralocorticoid receptor ligand binding domain (LBD) and fused with the Gal4 DNA-binding domain (DBD) and a firefly luciferase reporter gene plasmid under the control of Gal4 UAS (upstream activation sequence). The influence of the presence of stimulation or different stimuli on mineralocorticoid receptor activity is judged by the level of firefly luciferase activity.
Test Example 1: Assay for In-Vitro Antagonistic Activity Against Mineralocorticoid Receptors
All the compounds to be tested were serially diluted 3-fold from 10 mM with DMSO (Sigma, D8418), and 10 concentrations were obtained for each of the compounds.
The reference compound eplerenone was serially diluted 3-fold with DMSO to form 10 concentrations.
A 1000× positive control (10 mM eplerenone) and a 1000× negative control (100% DMSO) were prepared.
• 2.1. All cells were cultured as recommended by ATCC. HEK293T cells were passaged and plated when in the exponential growth phase. • 2.2. The old culture medium in the cell culture flask was discarded, and the cells were washed with PBS. • 2.3. A proper amount of TrypLE solution was added to the culture flask to digest the cells to separate them, and the digestion was stopped with a serum-containing complete culture medium. • 2.4. The cell suspension was centrifuged to make the cells settle. The cells were washed with PBS 2 times to remove phenol red and were then suspended with culture medium to a proper concentration (only cells with a survival rate of greater than 90% were used in the subsequent experiments). • 2.5. 6×10^6 HEK293T cells were spread on a 100 mm Petri dish and incubated in a 37° C., 5% CO2 incubator for 16 h. • 2.6. The cells were transfected with plasmids and then incubated in a 37° C., 5% CO2 incubator for another 5-6 h. • 2.7. 25 nL of compound dilution was transferred to a 384-well assay plate using Echo655. • 2.8. HEK293T cells were plated at a concentration of 17,000 cells/well in a 384-well plate, and meanwhile 1 nM aldosterone was added to each well. • 2.9. The cells were incubated in a 37° C., 5% CO2 incubator for 18-20 h. • 2.10. 25 μL of britelite+luciferase assay reagent was added to each well of the 384-well assay plate, and luminescence values were recorded on an Envision 2105 plate reader. • 2.11. The IC50 values of the compounds were obtained using the software Graphad 8.0 and a non-linear fitting equation.

[2] = tested on: db/db mice (idiopathic type II diabetes model mice); test: Efficacy test with db/db mouse model of diabetic nephropathy; format: in vivo; settings: for UACR / Urine creatinine / Urine weight / mALB: Mean±SEM; for mALB compared to the model control group / urine albumin-to-creatinine ratio (UACR) compared to the model control group / urine amount compared to the model control group: after 4 weeks of administration, in words
Protocol: Test Example 3: Efficacy Test with db/db Mouse Model of Diabetic Nephropathy
Proper amounts of compound 2-2 and finerenone were taken and separately mixed with a 0.5% hydroxyethyl cellulose solution (Tylose MH300) to form suspensions.
30 db/db mice (idiopathic type II diabetes model mice) were selected and divided into a model control group, a positive control group, and an administration group, and 10 db/m mice were selected as a control group.
The mice were dosed by oral gavage (i.g) once daily over 4 consecutive weeks. The dosing regimen is shown in detail in Table 4.
Urine albumin was used as a main measure. The data obtained were analyzed statistically using EXCEL and IBM SPSS Statistics 22.0.
All metrology data are expressed as Mean±SEM s. The parameters before and after dosing were plotted for the different groups of animals using the software Graph Pad Prism 8. Data were analyzed using the statistical software SPSS 22.0. A Levene's test of homogeneity of variance was performed on the parameters. When the variance was homogenous (P≥0.05), the Dunnett's & LSD method from the one-way analysis of variance (ANOVA) was used to compare the differences between the groups. When the variance was not homogenous (P<0.05), the Mann-Whitney U test (the M-W method) from the Kruskal-Wallis H test (the K-W method) was used to compare the differences between the groups. For animal survival, the log-rank test from the product-limit method (the K-M method) was used to compare the differences between the groups.

[3] = Human liver microsome metabolism study; format: in vitro ADME; settings: human liver microsomes
Protocol: Test Example 2: Human Liver Microsome Metabolism Study
222.5 μL of human liver microsomes (protein concentration: 1 mg/mL) and 25 μL of NADPH ([…]) were added to an incubation plate and pre-heated for 10 min. 2.5 μL of control compound and test compound (100 μM) were added.
30-μL aliquots were taken from the reaction solution at 0.5, 5, 10, 15, 20, and 30 min. The reaction was stopped by adding 5 volumes of cold acetonitrile containing IS (100 nM alprazolam, 200 nM caffeine, and 100 nM tolbutamide). The reaction solution was centrifuged, and 100 μL of the supernatant was collected and mixed with 100 μL of ultrapure H2O before analysis by LC-MS/MS.
The slope value k was determined by linear regression of the natural logarithm of a curve of the parent drug remaining percentage versus incubation time.
The in-vitro half-life (in-vitro T1/2) was determined by the slope value:
Using the following equation (the average of repeated measurements), the in-vitro T½ (min) was converted to in-vitro intrinsic clearance (in-vitro CLint, in μL/min/mg protein): […]

[4] = 15 mg/kg i.g. once daily, 4 weeks

IC50 [1]: 10 nM
SMILES: CCOc1ncc(C)c2c1C(c1cc(C)c(C#N)cc1OC)C(C(N)=O)=C(C)N2 (centres unmarked) [Compound 6]

IC50 [1]: 13 nM
Remaining amount % ([3]; 0.5 min): 100.00%
Remaining amount % ([3]; 5 min): 67.31%
Remaining amount % ([3]; 10 min): 42.44%
Remaining amount % ([3]; 15 min): 24.78%
Remaining amount % ([3]; 20 min): 16.62%
Remaining amount % ([3]; 30 min): 7.44%
half-life at 1 μM ([3]; in-vitro half-life): 7.4 min
microsomal CLint at 1 μM ([3]; in-vitro intrinsic clearance): 93.7 µL/min/mg
SMILES: CCOc1ncc(C)c2c1[C@H](c1ccc(C#N)cc1OC)C(C(N)=O)=C(C)N2 [Finerenone]
UACR ([2]; 0 weeks (before dosing)): 5538.19 µg/mg
Urine creatinine ([2]; 0 weeks (before dosing)): 0.37 μmol/24 h
Urine weight ([2]; 0 weeks (before dosing)): 2.86 mL
mALB ([2]; 0 weeks (before dosing)): 226.68 μg/24 h
UACR [2, 4]: 4294.14 µg/mg
Urine creatinine [2, 4]: 2.11 μmol/24 h
Urine weight [2, 4]: 11.96 mL
mALB [2, 4]: 1,013.76 μg/24 h
mALB compared to the model control group [2]: tended to be lower than those in the model control group
urine albumin-to-creatinine ratio (UACR) compared to the model control group [2]: decreased somewhat but is not significantly different from that of the mice in the model group
urine amount compared to the model control group [2]: tended to be lower than those in the model control group

IC50 [1]: 7 nM
SMILES: [2H]C([2H])([2H])Oc1cc(C#N)ccc1C1C(C(N)=O)=C(C)Nc2c(C)cnc(OCC)c21 (centres unmarked) [Compound 2]
mALB compared to the model control group [2]: tended to be lower than those in the model control group
urine albumin-to-creatinine ratio (UACR) compared to the model control group [2]: statistically significantly smaller than that of the mice in the model control group (P<0.01)
urine amount compared to the model control group [2]: tended to be lower than those in the model control group

IC50 [1]: 5 nM
SMILES: CCOc1nc(Cl)cc2c1C(c1ccc(C#N)cc1OC)C(C(N)=O)=C(C)N2 (centres unmarked) [Compound 5]

SMILES: COc1cc(C#N)ccc1C1C(C(N)=O)=C(C)Nc2c(C)cnc(OCCSC)c21 (centres unmarked) [Compound 1]
IC50 [1]: 16 nM

IC50 [1]: 11 nM
SMILES: CCOc1ncc(Cl)c2c1C(c1ccc(C#N)cc1OC)C(C(N)=O)=C(C)N2 (centres unmarked) [Compound 4]

IC50 [1]: 17 nM
SMILES: [2H]C([2H])([2H])C([2H])([2H])Oc1ncc(C)c2c1C(c1ccc(C#N)cc1OC)C(C(N)=O)=C(C)N2 (centres unmarked) [Compound 3]
